This is an account of results in paper PMC10786692 (The Journal of Clinical Investigation, 2024).

Structures are written as SMILES.

The subject of this test is plasma cytokines. Nature of the test: Plasma cytokines, Bio-Plex Pro 27-plex. The format is in vivo, human. The settings on record: after 2 weeks of treatment. As for the experimental part:
DNA-Seq of tumor and matched buffy coats was either by whole-exome sequencing or a custom-designed panel targeting all exons of genes of interest for 173 genes, including potential markers of sensitivity to ATRi. ACK-lysed whole blood or PBMCs were stained for flow cytometry using 8 multicolor panels. Plasma cytokines were assessed using the Bio-Plex Pro 27-Plex Panel (Bio-Rad). See Supplemental Methods for full information.
Plasma was taken from EDTA tubes (BD vacutainer) used for buffy coat or immune profiling samples. Plasma was removed, re-spun and aliquoted into 1.5 mL tubes and stored at -70 OC until analysis. Samples were run in duplicate using the Bio-Plex Pro Human Cytokine 27-plex panel (Bio-Rad) as per manufacturer’s instructions.
Criteria for Dose Limiting Toxicity
1. Hematological toxicity
1. Grade 3 thrombocytopenia with bleeding
2. Grade 4 thrombocytopenia
3. Grade 4 neutropenia lasting >7 days in the absence of growth factor
4. Grade 4 neutropenia of any duration accompanied by fever ≥ 38.5°C and/or systemic infection
5. Any other grade ≥4 hematological toxicity
2. Cardiovascular toxicity
1. Clinically significant hypotension defined as an asymptomatic fall in systolic blood pressure more than 20mmHg to below 70mmHg persisting for at least 10 minutes
2. Symptomatic orthostatic fall in systolic blood pressure of more than 20mmHg compared to resting supine blood pressure
3. Prolongation of QTc >0.5 seconds (using an appropriate correction […]
3. Gastrointestinal/hepatic toxicity
1. ALT or AST >5 times ULN; ALP >5 times ULN with elevated gamma- GT

`C[C@@H]1COCCN1c1cc(C2([S@](C)(=N)=O)CC2)nc(-c2cc[nH]c3nccc2-3)n1` [ceralasertib]: the “Circulating CCL2 level” value was “increase”, the “Circulating CCL4 level” value was “decrease” and the “Circulating CCL5 level” value is “decrease”.
